Test results: PubChem BioAssay AID248 (DTP/NCI, 2004)
Several values for one entry are separate records, joined by “and”; a condition that tells them apart may be missing. Identical values can stand only once. Inconclusive results and toxic doses are left out. Rule as the data show it: active = T/C of 150% or more; inactive = T/C below 125%.

System: L1210 leukemia ip in BDF1 mice, survival T/C
Test: NCI In Vivo Anticancer Drug Screen. Data for tumor model L1210 Leukemia (intraperitoneal) in B6D2F1 (BDF1) mice
Conditions: endpoint: mean survival time, higher = longer survival
Procedure, shortened: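 Value reflects the ratio of survival in compound-treated mice to survival in vehicle-treated controls, with both groups carrying the same transplanted tumor.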

[1] = dose: 100.0 mg/kg/injection, schedule: Q01DX001 (ip), vehicle: carboxymethylcellulose (CMC)
[2] = dose: 100.0 mg/kg/injection, schedule: Q01DX Z (ip), vehicle: carboxymethylcellulose (CMC)
[3] = dose: 200.0 mg/kg/injection, schedule: Q01DX001 (ip), vehicle: carboxymethylcellulose (CMC)
[4] = dose: 100.0 mg/kg/injection, schedule: Q01DX009 (ip), vehicle: Klucel (hydroxypropylcellulose) (HPC)
[5] = dose: 200.0 mg/kg/injection, schedule: Q01DX009 (ip), vehicle: Klucel (hydroxypropylcellulose) (HPC)
[6] = dose: 400.0 mg/kg/injection, schedule: Q01DX009 (ip), vehicle: Klucel (hydroxypropylcellulose) (HPC)
[7] = dose: 50.0 mg/kg/injection, schedule: Q01DX009 (ip), vehicle: saline with Tween-80
[8] = dose: 100.0 mg/kg/injection, schedule: Q01DX009 (ip), vehicle: saline with Tween-80
[9] = dose: 200.0 mg/kg/injection, schedule: Q01DX009 (ip), vehicle: saline with Tween-80
[10] = dose: 50.0 mg/kg/injection, schedule: Q01DX001 (ip), vehicle: saline
[11] = dose: 100.0 mg/kg/injection, schedule: Q01DX001 (ip), vehicle: saline
[12] = dose: 200.0 mg/kg/injection, schedule: Q01DX001 (ip), vehicle: saline
[13] = dose: 400.0 mg/kg/injection, schedule: Q01DX001 (ip), vehicle: saline
[14] = dose: 50.0 mg/kg/injection, schedule: Q01DX009 (ip), vehicle: Klucel (hydroxypropylcellulose) (HPC)
[15] = dose: 100.0 mg/kg/injection, schedule: Q04DX003 (ip), vehicle: Klucel (hydroxypropylcellulose) (HPC)

Measured: T/C

CCCC(=O)N1CCCC1
inactive: dose: 100.0 mg/kg/injection, schedule: Q04DX002 (ip), vehicle: saline 107 % of control | dose: 200.0 mg/kg/injection, schedule: Q04DX002 (ip), vehicle: saline 103 % of control | dose: 400.0 mg/kg/injection, schedule: Q04DX002 (ip), vehicle: saline 111 % of control

N#CCC(N)=C(C#N)C#N
inactive: [1] 94 % of control | [2] 94 % of control | [3] 103 % of control

CN(N=O)C(=O)NCc1ccc(Cl)cc1
inactive: dose: 9.0 mg/kg/injection, schedule: Q01DX Z (ip), vehicle: carboxymethylcellulose (CMC) 108 % of control | dose: 18.0 mg/kg/injection, schedule: Q01DX Z (ip), vehicle: carboxymethylcellulose (CMC) 91 % of control | dose: 37.0 mg/kg/injection, schedule: Q01DX Z (ip), vehicle: carboxymethylcellulose (CMC) 101 % of control | dose: 75.0 mg/kg/injection, schedule: Q01DX Z (ip), vehicle: carboxymethylcellulose (CMC) 111 % of control | [2] 109 % of control | dose: 150.0 mg/kg/injection, schedule: Q01DX Z (ip), vehicle: carboxymethylcellulose (CMC) 118 % of control | dose: 200.0 mg/kg/injection, schedule: Q01DX Z (ip), vehicle: carboxymethylcellulose (CMC) 119 % of control

CCCCOP(=O)(Cc1ccccc1)Oc1ccccc1 (configuration not stated)
inactive: [4] 95 % of control | [5] 97 % of control | [6] 105 % of control

CC1(C)CN1C1=C(Cl)C(=O)C(N2CC2(C)C)=C(Cl)C1=O
inactive: dose: 1.56 mg/kg/injection, schedule: Q04DX003 (ip), vehicle: saline 92 % of control | dose: 3.12 mg/kg/injection, schedule: Q04DX003 (ip), vehicle: saline 96 % of control | dose: 6.25 mg/kg/injection, schedule: Q04DX003 (ip), vehicle: saline 113 % of control | dose: 12.5 mg/kg/injection, schedule: Q04DX003 (ip), vehicle: saline 101 % of control | dose: 25.0 mg/kg/injection, schedule: Q04DX003 (ip), vehicle: saline 96 % of control | dose: 50.0 mg/kg/injection, schedule: Q04DX003 (ip), vehicle: saline 92 % of control | dose: 75.0 mg/kg/injection, schedule: Q04DX003 (ip), vehicle: saline 104 % of control | dose: 115.0 mg/kg/injection, schedule: Q04DX003 (ip), vehicle: saline 104 % of control | dose: 170.0 mg/kg/injection, schedule: Q04DX003 (ip), vehicle: saline 108 % of control

COC1CCCCC1I (configuration not stated)
inactive: [7] 95 % of control | [8] 95 % of control | [9] 93 % of control

Cc1nc(N)[nH]c(=O)c1CCCNS(=O)(=O)c1ccc(CNC(=O)CBr)cc1
inactive: dose: 37.5 mg/kg/injection, schedule: Q01DX001 (ip), vehicle: Klucel (hydroxypropylcellulose) (HPC) 107 % of control | dose: 75.0 mg/kg/injection, schedule: Q01DX001 (ip), vehicle: Klucel (hydroxypropylcellulose) (HPC) 94 % of control | dose: 150.0 mg/kg/injection, schedule: Q01DX001 (ip), vehicle: Klucel (hydroxypropylcellulose) (HPC) 96 % of control

O=C1CCCCCCCC1O (configuration not stated)
inactive: [10] 96 % of control | [11] 98 % of control | [12] 102 % of control | [13] 104 % of control

O=C(c1ccccc1[N+](=O)[O-])N(O)c1ccc(/C=C/c2ccccc2)cc1
inactive: [1] 93 % of control | [3] 95 % of control | dose: 400.0 mg/kg/injection, schedule: Q01DX001 (ip), vehicle: carboxymethylcellulose (CMC) 95 % of control

CSc1cnnc2ccccc12
inactive: dose: 25.0 mg/kg/injection, schedule: Q01DX009 (ip), vehicle: Klucel (hydroxypropylcellulose) (HPC) 110 % of control | [14] 115 % of control

CCCCCCCCC(=O)NCc1ccc(OC)cc1
inactive: dose: 25.0 mg/kg/injection, schedule: Q01DX009 (ip), vehicle: other 93 % of control | dose: 50.0 mg/kg/injection, schedule: Q01DX009 (ip), vehicle: other 90 % of control | dose: 100.0 mg/kg/injection, schedule: Q01DX009 (ip), vehicle: other 100 % of control | dose: 100.0 mg/kg/injection, schedule: Q04DX003 (ip), vehicle: other 95 % of control | dose: 200.0 mg/kg/injection, schedule: Q01DX009 (ip), vehicle: other 92 % of control | dose: 200.0 mg/kg/injection, schedule: Q04DX003 (ip), vehicle: other 90 % of control | dose: 400.0 mg/kg/injection, schedule: Q01DX009 (ip), vehicle: other 91 % of control | dose: 400.0 mg/kg/injection, schedule: Q04DX003 (ip), vehicle: other 88 % of control

CCCCN1C(=O)c2c(Cl)c(Cl)c(Cl)c(Cl)c2C1=O
inactive: dose: 200.0 mg/kg/injection, schedule: Q04DX002 (ip), vehicle: other 94 % of control | dose: 400.0 mg/kg/injection, schedule: Q04DX002 (ip), vehicle: other 92 % of control

O=C(NC(=S)Nc1ccc(F)cc1)c1ccco1
inactive: [14] 94 % of control | [4] 92 % of control | [15] 103 % of control | dose: 200.0 mg/kg/injection, schedule: Q04DX003 (ip), vehicle: Klucel (hydroxypropylcellulose) (HPC) 97 % of control

CC(=O)OC1COC(n2cnc3c(=S)nc(N)[nH]c32)C(OC(C)=O)C1OC(C)=O (configuration not stated)
inactive: [11] 100 % of control | [12] 97 % of control | [13] 97 % of control

CN(C)CCCNc1nc(-c2cccc(C(Cl)(Cl)Cl)c2)nc(C(Cl)(Cl)Cl)n1
inactive: dose: 75.0 mg/kg/injection, schedule: Q01DX001 (ip), vehicle: saline 95 % of control | dose: 150.0 mg/kg/injection, schedule: Q01DX001 (ip), vehicle: saline 101 % of control | dose: 300.0 mg/kg/injection, schedule: Q01DX001 (ip), vehicle: saline 91 % of control

CC(C)(C)C1=CC(=O)C(C(C)(C)C)=CC1=O
inactive: [7] 104 % of control | [8] 98 % of control | [9] 95 % of control

CN1C(=O)C(c2ccccc2)(c2ccccc2)C(Br)=C1c1ccccc1
inactive: [10] 107 % of control | [11] 91 % of control | [12] 96 % of control | [13] 102 % of control

Nc1nc(N)c(N)c(=O)[nH]1
inactive: dose: 25.0 mg/kg/injection, schedule: Q04DX003 (ip), vehicle: Klucel (hydroxypropylcellulose) (HPC) 103 % of control | dose: 50.0 mg/kg/injection, schedule: Q04DX003 (ip), vehicle: Klucel (hydroxypropylcellulose) (HPC) 100 % of control | dose: 100.0 mg/kg/injection, schedule: Q01DX009 (ip), vehicle: saline 109 % of control | [15] 94 % of control and 100 % of control | dose: 100.0 mg/kg/injection, schedule: Q04DX003 (ip), vehicle: saline 107 % of control | dose: 200.0 mg/kg/injection, schedule: Q01DX009 (ip), vehicle: saline 101 % of control | dose: 200.0 mg/kg/injection, schedule: Q04DX003 (ip), vehicle: saline 105 % of control | dose: 400.0 mg/kg/injection, schedule: Q01DX009 (ip), vehicle: saline 101 % of control | dose: 400.0 mg/kg/injection, schedule: Q04DX003 (ip), vehicle: saline 104 % of control

Cc1cccc(C)c1NC(=O)Oc1ccc(Cl)cc1Cc1ccccc1
inactive: [4] 88 % of control | [5] 88 % of control | [6] 102 % of control

Cc1cccc(Cl)c1NC(=O)CCCl
inactive: [8] 103 % of control | [9] 104 % of control | dose: 400.0 mg/kg/injection, schedule: Q01DX009 (ip), vehicle: saline with Tween-80 90 % of control
